# US20260355196A1, “INHIBITORS AND DEGRADERS OF PIP4K PROTEIN” (Larkspur Biosciences, Inc., priority 2023, published 2026)
# Molecular target: T1, PIP4K2C (Homo sapiens, UniProt Q8TBX8)
# T1 sequence (Q8TBX8 1-421): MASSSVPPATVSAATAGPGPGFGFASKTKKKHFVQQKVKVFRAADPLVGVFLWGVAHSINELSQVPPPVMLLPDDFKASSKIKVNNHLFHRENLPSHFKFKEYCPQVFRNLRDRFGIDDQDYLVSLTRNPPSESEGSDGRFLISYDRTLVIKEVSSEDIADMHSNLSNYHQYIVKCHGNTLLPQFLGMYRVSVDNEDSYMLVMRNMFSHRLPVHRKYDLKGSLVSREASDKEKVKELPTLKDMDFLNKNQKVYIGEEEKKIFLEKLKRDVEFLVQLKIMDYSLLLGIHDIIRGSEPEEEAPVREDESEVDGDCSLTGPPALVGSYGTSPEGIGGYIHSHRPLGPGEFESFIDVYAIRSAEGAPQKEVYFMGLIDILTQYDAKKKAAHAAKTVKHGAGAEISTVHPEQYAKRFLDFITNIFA
# Test: HiBiT PIP4K2C degradation assay in MOLT-4 cells (endogenous PIP4K2C C-terminally tagged with HiBiT)
# Type: cell-based
# Set-up: untagged in primary human PBMCs and monocyte-derived dendritic cells
# Details: 6 hours of incubation time, rather than 24 hours; MOLT-4, top concentration 10 micromolar; read-out: HiBIT-degradation MOLT4 PIP4k2C DC50 (6 hours, marked *)
# How it was run: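 Cells are plated onto compound dilutions (10 points, 3-fold, top 10 micromolar) and incubated 24 or 6 hours at 37 C. Lytic HiBiT detection then quantifies tagged endogenous PIP4K2C in MOLT-4, and a Hill fit yields DC50.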
row,Compound,DC50 [nM]
1,"O=C1CCC(Nc2ccc(C3CCN(C[C@H]4CC[C@H](CNC(=O)[C@H]5CC[C@H](Nc6ncc(F)c(-c7cccc(N8CCOCC8=O)c7)n6)CC5)CC4)CC3)c(F)c2)C(=O)N1 (stereo partly drawn) [Compound 589, trans-(1r,4R)—N-(((1r,4R)-4-((4-(4-((2,6-dioxopiperidin-3-yl)amino)-2-fluorophenyl)piperidin-1-yl)methyl)cyclohexyl)methyl)-4-((5-fluoro-4-(3-(3-oxomorpholino)phenyl)pyrimidin-2-yl)amino)cyclohexane-1-carboxamide]",< 500
2,"O=C1CCC(Nc2ccc(N3CCN(C[C@H]4CC[C@H](CNC(=O)[C@H]5CC[C@H](Nc6ncc(F)c(-c7cccc(N8CCCCC8=O)c7)n6)CC5)CC4)CC3)c(F)c2)C(=O)N1 (stereo partly drawn) [Compound 590, trans-(1r,4R)—N-(((1r,4R)-4-((4-(4-((2,6-dioxopiperidin-3-yl)amino)-2-fluorophenyl)piperazin-1-yl)methyl)cyclohexyl)methyl)-4-((5-fluoro-4-(3-(2-oxopiperidin-1-yl)phenyl)pyrimidin-2-yl)amino)cyclohexane-1-carboxamide]",< 500
3,"O=C1CCC(Nc2ccc(N3CCN(C[C@H]4CC[C@H](CNC(=O)[C@H]5CC[C@H](Nc6ncc(F)c(-c7cccc(N8CCCOC8=O)c7)n6)CC5)CC4)CC3)c(F)c2)C(=O)N1 (stereo partly drawn) [Compound 591, trans-(1r,4R)—N-(((1r,4R)-4-((4-(4-((2,6-dioxopiperidin-3-yl)amino)-2-fluorophenyl)piperazin-1-yl)methyl)cyclohexyl)methyl)-4-((5-fluoro-4-(3-(2-oxo-1,3-oxazinan-3-yl)phenyl)pyrimidin-2-yl)amino)cyclohexane-1-carboxamide]",< 500
4,"O=C1CCC(Nc2ccc(N3CCC(N4CCC(C(=O)N[C@H]5CC[C@H](Nc6ncc(F)c(-c7cccc(N8CCOC8=O)c7)n6)CC5)CC4)CC3)c(F)c2)C(=O)N1 (stereo partly drawn) [Compound 596, trans-1′-(4-((2,6-dioxopiperidin-3-yl)amino)-2-fluorophenyl)-N-(4-((5-fluoro-4-(3-(2-oxooxazolidin-3-yl)phenyl)pyrimidin-2-yl)amino)cyclohexyl)-[1,4′-bipiperidine]-4-carboxamide]",< 500
5,"O=C1CCC(Nc2ccc(N3CCC(N4CCC(C(=O)N[C@H]5CC[C@H](Nc6ncc(F)c(-c7cccc(N8CCCOC8=O)c7)n6)CC5)CC4)CC3)c(F)c2)C(=O)N1 (stereo partly drawn) [Compound 597, trans-1′-(4-((2,6-dioxopiperidin-3-yl)amino)-2-fluorophenyl)-N-(4-((5-fluoro-4-(3-(2-oxo-1,3-oxazinan-3-yl)phenyl)pyrimidin-2-yl)amino)cyclohexyl)-[1,4′-bipiperidine]-4-carboxamide]",< 500
6,"O=C1CCC(Nc2ccc(N3CCC(N4CCC(C(=O)N[C@H]5CC[C@H](Nc6ncc(F)c(-c7cccc(-n8ccccc8=O)c7)n6)CC5)CC4)C(F)(F)C3)c(F)c2)C(=O)N1 (stereo partly drawn) [Compound 598, trans-1′-(4-((2,6-dioxopiperidin-3-yl)amino)-2-fluorophenyl)-3′,3′-difluoro-N-(4-((5-fluoro-4-(3-(2-oxopyridin-1(2H)-yl)phenyl)pyrimidin-2-yl)amino)cyclohexyl)-[1,4′-bipiperidine]-4-carboxamide]",< 500
7,"O=C1CCC(Nc2ccc(N3CCC(N4CCC(C(=O)N[C@H]5CC[C@H](Nc6ncc(F)c(-c7cccc(-c8ccc[nH]c8=O)c7)n6)CC5)CC4)C(F)(F)C3)c(F)c2)C(=O)N1 (stereo partly drawn) [Compound 599, 1′-(4-((2,6-dioxopiperidin-3-yl)amino)-2-fluorophenyl)-3′,3′-difluoro-N-(trans-4-((5-fluoro-4-(3-(2-oxo-1,2-dihydropyridin-3-yl)phenyl)pyrimidin-2-yl)amino)cyclohexyl)-[1,4′-bipiperidine]-4-carboxamide]",< 500
8,"O=C1CCC(Nc2ccc(N3CCN([C@H]4CC[C@H](C(=O)N[C@H]5CC[C@H](Nc6ncc(F)c(-c7cccc(-c8ccccc8)c7)n6)CC5)CC4)CC3)c(F)c2)C(=O)N1 (stereo partly drawn) [Compound 604, trans-(1r,4R)—N-((1r,4R)-4-((4-([1,1′-biphenyl]-3-yl)-5-fluoropyrimidin-2-yl)amino)cyclohexyl)-4-(4-(4-((2,6-dioxopiperidin-3-yl)amino)-2-fluorophenyl)piperazin-1-yl)cyclohexane-1-carboxamide]",< 500
9,"O=C1CCC(Nc2ccc(N3CCN([C@H]4CC[C@H](C(=O)N[C@H]5CC[C@H](Nc6ncc(F)c(-c7cccc(N8CCOCC8)c7)n6)CC5)CC4)CC3)c(F)c2)C(=O)N1 (stereo partly drawn) [Compound 605, trans-(1r,4R)-4-(4-(4-((2,6-dioxopiperidin-3-yl)amino)-2-fluorophenyl)piperazin-1-yl)-N-((1r,4R)-4-((5-fluoro-4-(3-morpholinophenyl)pyrimidin-2-yl)amino)cyclohexyl)cyclohexane-1-carboxamide]",< 500
10,"O=C1CCC(Nc2ccc(N3CCN([C@H]4CC[C@H](C(=O)N[C@H]5CC[C@H](Nc6ncc(Cl)c(-c7cccc(-n8ccccc8=O)c7)n6)CC5)CC4)CC3)c(F)c2)C(=O)N1 (stereo partly drawn) [Compound 632, trans-(1r,4R)—N-((1r,4R)-4-((5-chloro-4-(3-(2-oxopyridin-1 (2H)-yl)phenyl)pyrimidin-2-yl)amino)cyclohexyl)-4-(4-(4-((2,6-dioxopiperidin-3-yl)amino)-2-fluorophenyl)piperazin-1-yl)cyclohexane-1-carboxamide]",< 500
11,"O=C1CCC(Nc2ccc(C3CCN(C4CC5(CC(OC(=O)N6CCC(Nc7ncc(F)c(-c8cccc(-n9ccccc9=O)c8)n7)CC6)C5)C4)CC3)c(F)c2)C(=O)N1 (centres unmarked) [Compound 633, 6-(4-(4-((2,6-dioxopiperidin-3-yl)amino)-2-fluorophenyl)piperidin-1-yl)spiro[3.3]heptan-2-yl 4-((5-fluoro-4-(3-(2-oxopyridin-1 (2H)-yl)phenyl)pyrimidin-2-yl)amino)piperidine-1-carboxylate]",< 500

# Now from value to compound:
row,DC50 [nM],Compound
1,< 500,"Cn1nc(N2CCC(=O)NC2=O)c2ccc(C3CCN(CC4(O)CCN(C(=O)O[C@H]5CC[C@H](Nc6ncc(F)c(-c7cccc(-c8ccccc8)c7)n6)CC5)CC4)CC3)cc21 [Compound 635, trans-4-((4-([1,1′-biphenyl]-3-yl)-5-fluoropyrimidin-2-yl)amino)cyclohexyl 4-((4-(3-(2,4-dioxotetrahydropyrimidin-1 (2H)-yl)-1-methyl-1H-indazol-6-yl)piperidin-1-yl)methyl)-4-hydroxypiperidine-1-carboxylate]"
2,< 500,"Cn1nc(N2CCC(=O)NC2=O)c2ccc(C3CCN(CC4CCN(C(=O)O[C@H]5CC[C@H](Nc6ncc(F)c(-c7cccc(-c8ccccc8)c7)n6)CC5)CC4)CC3)cc21 [Compound 636, trans-4-((4-([1,1′-biphenyl]-3-yl)-5-fluoropyrimidin-2-yl)amino)cyclohexyl 4-((4-(3-(2,4-dioxotetrahydropyrimidin-1 (2H)-yl)-1-methyl-1H-indazol-6-yl)piperidin-1-yl)methyl)piperidine-1-carboxylate]"
3,< 500,"O=C1CCC(Nc2ccc(N3CCC(N4CC5(CC(OC(=O)N6CCC(Nc7ncc(F)c(-c8cccc(-n9ccccc9=O)c8)n7)CC6)C5)C4)CC3)c(F)c2)C(=O)N1 (centres unmarked) [Compound 637, 2-(1-(4-((2,6-dioxopiperidin-3-yl)amino)-2-fluorophenyl)piperidin-4-yl)-2-azaspiro[3.3]heptan-6-yl 4-((5-fluoro-4-(3-(2-oxopyridin-1 (2H)-yl)phenyl)pyrimidin-2-yl)amino)piperidine-1-carboxylate]"
4,< 500,"O=C1CCC(Nc2ccc(C3CCN(C[C@H]4CC[C@H](COC(=O)N5CCC(Nc6ncc(F)c(-c7cccc(-c8ccccc8)c7)n6)CC5)CC4)CC3)c(F)c2)C(=O)N1 (stereo partly drawn) [Compound 640, trans-(4-((4-(4-((2,6-dioxopiperidin-3-yl)amino)-2-fluorophenyl)piperidin-1-yl)methyl)cyclohexyl)methyl 4-((4-([1,1′-biphenyl]-3-yl)-5-fluoropyrimidin-2-yl)amino)piperidine-1-carboxylate]"

# Same assay, conditions: read-out: HiBIT-degradation MOLT4 PIP4k2C DC50 (6 hours, marked *); 6 hours of incubation time, rather than 24 hours; MOLT-4, top concentration 10 micromolar
row,DC50 [nM],Compound
1,< 500,"Cn1nc(N2CCC(=O)NC2=O)c2ccc(N3CCN(CC4CCN(C(=O)O[C@H]5CC[C@H](Nc6ncc(F)c(-c7cccc(-c8ccccc8)c7)n6)CC5)CC4)CC3)cc21 [Compound 634, trans-4-((4-([1,1′-biphenyl]-3-yl)-5-fluoropyrimidin-2-yl)amino)cyclohexyl 4-((4-(3-(2,4-dioxotetrahydropyrimidin-1 (2H)-yl)-1-methyl-1H-indazol-6-yl)piperazin-1-yl)methyl)piperidine-1-carboxylate]"
2,< 500,"O=C1CCC(Nc2ccc(C3CCN(CCC4(O)CCN(C(=O)O[C@H]5CC[C@H](Nc6ncc(F)c(-c7cccc(-n8ccccc8=O)c7)n6)CC5)CC4)CC3)c(F)c2)C(=O)N1 (stereo partly drawn) [Compound 641, trans-4-((5-fluoro-4-(3-(2-oxopyridin-1 (2H)-yl)phenyl)pyrimidin-2-yl)amino)cyclohexyl 4-(2-(4-(4-((2,6-dioxopiperidin-3-yl)amino)-2-fluorophenyl)piperidin-1-yl)ethyl)-4-hydroxypiperidine-1-carboxylate]"
